Test results reported in patent US20100062465A1, “Detection of Histone Deacetylase Inhibition” (priority 2006, published 2010).
Several values for one entry are separate records, joined by “and”; a condition that tells them apart may be missing. Equal entries are not always repeated. Structures can show the parent of a compound that is named as a salt.

Key:
HDAC = experiment: Fluor de Lys fluorometric assay of HDAC activity in PC3 cells; type: cell-based, human; details: for HDAC activity (relative to controls): 24 h
Experimental: Briefly 20×10^3 cells/well were seeded in 96 well plates and incubated for 24 h with (a) 1 mM BLT (b) FSAHA at 2, 5, 10 μM (c) SAHA at 2, 5, 10 μM (d) FSAHA at 2, 5, 7, 8, 9, 10 μM in the presence of 1 mM BLT (e) FSAHA at 2, 5, 7, 8, 9, 10 μM in the presence of vehicle (DMSO). The Fluor de Lys substrate was then added for 1 h, medium removed, cells rinsed with PBS and incubated for 10 minutes with the Fluor-de-Lys developer, and fluorescence read at 460 nm using the Tecan microplate reader as above. Results were normalized to cell density as determined using the WST-1 assay in the same 96 well plate.

PC3 cells = experiment: 31P MRS of PC3 cell extracts (phosphocholine); type: cell-based, human; details: 24 h
Experimental: For MRS studies, PC3 cells were treated for 24 h with FSAHA at 2, 5, 7, 8, 9 and 10 μM in the presence of 1 mM BLT or with 1 mM BLT alone. […] The number of cells extracted was determined by counting a separate flask of cells. ^19F MR spectra of the water-soluble metabolites were recorded as above. Metabolite concentrations were determined by integration and comparison with the area of the external C6F6 reference, normalizing to cell number and correcting for saturation effects. Correction for saturation effects was achieved by also acquiring a quantitative inverse gated fully relaxed spectrum on two different samples and calculating the correction factors which need to be applied to the partially relaxed spectra. It was determined that the T1 relaxation of BLT is 1 s and that of C6F6 is 3 s. The fully relaxed spectrum was therefore acquired using a 90 deg. flip angle and a 15 s relaxation delay (5 times the longest T1). ^31P MR spectra were recorded on an Avance DRX500 Bruker spectrometer (Bruker Biospin Germany) using a 30 deg. flip angle and 3 s relaxation delay. […]

recombinant HDAC8 = biological target: T1, recombinant HDAC8 (Homo sapiens, UniProt Q9BY41); experiment: 19F MRS study of BLT cleavage by recombinant HDAC8; type: biochemical; details: 0.6 mM BLT, 28U HDAC-8
T1 construct: purchased Biomol
T1 sequence (Q9BY41 1-377): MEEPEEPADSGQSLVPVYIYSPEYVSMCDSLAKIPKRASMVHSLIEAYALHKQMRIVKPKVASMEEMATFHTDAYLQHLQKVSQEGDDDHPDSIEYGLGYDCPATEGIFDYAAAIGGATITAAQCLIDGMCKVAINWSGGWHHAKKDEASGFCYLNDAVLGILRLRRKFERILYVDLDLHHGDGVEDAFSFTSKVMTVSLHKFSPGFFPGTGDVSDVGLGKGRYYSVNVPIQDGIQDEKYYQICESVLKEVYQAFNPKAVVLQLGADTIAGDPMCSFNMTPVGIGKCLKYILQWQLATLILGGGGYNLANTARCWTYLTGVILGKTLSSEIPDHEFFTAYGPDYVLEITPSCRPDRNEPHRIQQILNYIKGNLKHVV
Experimental: To confirm that MRS can be used to monitor cleavage of the HDAC substrate, 0.6 mM BLT (Advance Chem-Tech, KY USA) was incubated alone or with 28U recombinant HDAC-8 (Biomol PA) in a total volume of 500 μl HDAC assay buffer (Biomol PA. USA, composed of 25 mM Tris/Cl, 137 mM NaCl, 2.7 mM KCl, 1 mM MgCl2 and formulated to maintain HDAC activity). ^19F MRS was used to monitor the decrease in BLT and buildup of the cleavage product trifluoroacetate (TFA) by acquiring ^1H decoupled spectra at 10 min intervals on an Avance DPX 300 Bruker spectrometer (Bruker Biospin, Germany) using a 30 deg. flip angle, 3 s relaxation delay and 128 scans. A sealed insert containing C6F6 served as a quantification and chemical shift reference (−164.9 ppm relative to CFCl3).

[1] = Solubility in growth medium; type: physicochemical; details: dissolved in DMSO first
Experimental: Note that controls were treated with DMSO in order to clearly identify effects which are due to the compound being investigated rather than its vehicle (DMSO). FSAHA dose was based on previous findings (Butler L M, Agus D B, Scher H I, et al. Suberoylanilide hydroxamic acid, an inhibitor of histone deacetylase, suppresses the growth of prostate cancer cells in vitro and in vivo. Cancer Res 2000 September 15;60(18):5165-70).

**Q.** Which results are given for O=C(CCCCCCC(=O)Nc1ccc(F)cc1)NO [FSAHA, 4-Fluorosuberanilohydroxamic acid]?
**A.** HDAC activity (relative to controls) (HDAC; 2 μM): 93±16%; HDAC activity (relative to controls) (HDAC; 2 μM in the presence of 1 mM BLT): 88±12%; HDAC activity (relative to controls) (HDAC; 5 μM): 58±14%; HDAC activity (relative to controls) (HDAC; 5 μM in the presence of 1 mM BLT): 69±9%; HDAC activity (relative to controls) (HDAC; 10 μM): 41±8%; HDAC activity (relative to controls) (HDAC; 10 μM in the presence of 1 mM BLT): 53±5% and 53%; Phosphocholine (PC) level (PC3 cells; PC3 cells, 10 μM FSAHA in the presence of 1 mM BLT): 16±2 fmol/cell and 16 fmol/cell and 15 fmol/cell

**Q.** Which “HDAC activity levels relative to DMSO-treated controls” value (HDAC; 24 hours, 1 mM) does the source give for CC(C)(C)OC(=O)N[C@@H](CCCCNC(=O)C(F)(F)F)C(=O)O [BLT, Boc-Lys-TFA-OH] here?
**A.** Its value is 102±9%.

**Q.** What about the “Cleavage by recombinant HDAC8 monitored by 19F MRS” value (recombinant HDAC8) of the same compound?
**A.** The value was “substrate of HDAC8”.

**Q.** And the “Solubility in growth medium” value [1]?
**A.** Its value is “low solubility”.

**Q.** And the “Phosphocholine (PC) level” value (PC3 cells; PC3 control cells, 1 mM BLT alone)?
**A.** The value was 7±1 fmol/cell and 7 fmol/cell.
